Data: PubChem BioAssay (NCI)
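Grown in 96-well plates, cells were treated for 48 hours with each compound at five concentrations. Insufficient inhibition: endpoint recorded as highest concentration tested. TGI is the concentration that stops growth completely.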

Tests used:
Assay in all cases: NCI anticancer screen, dose series, 48 h
786-0 renal = tested on: 786-0 renal
ACHN renal = tested on: ACHN renal
M14 melanoma = tested on: M14 melanoma
MDA-N = tested on: MDA-N
OVCAR-5 ovarian = tested on: OVCAR-5 ovarian
SF-295 CNS = tested on: SF-295 CNS
T-47D breast = tested on: T-47D breast
TK-10 renal = tested on: TK-10 renal
U251 CNS = tested on: U251 CNS

| SMILES | TGI (786-0 renal) [µM] | TGI (ACHN renal) [µM] | TGI (M14 melanoma) [µM] | TGI (MDA-N) [µM] | TGI (OVCAR-5 ovarian) [µM] | TGI (SF-295 CNS) [µM] | TGI (T-47D breast) [µM] | TGI (TK-10 renal) [µM] | TGI (U251 CNS) [µM] |
| --- | --- | --- | --- | --- | --- | --- | --- | --- | --- |
| CN(C)c1ccc(C(=NN)c2ccc(N(C)C)cc2)cc1 | 36.5 | > 78.7 | > 100 | 24.4 | > 100 | > 21.8 | > 100 | 3.66 | 9.21 |
| Oc1ccc(-c2cn3cc(C(F)(F)F)ccc3n2)cc1 | > 100 | > 100 | > 100 | > 100 | > 100 | > 100 | 60.7 | > 100 | > 100 |
| COC(=O)[C@@H]1Cc2cc(O)c(O)cc2C2(CCN(C)CC2)O1 | > 10 | > 10 | > 10 | > 10 | > 10 | > 10 | > 10 | > 10 | > 10 |
| CC(C)CN(CC#N)CC(C)C | > 100 | > 100 | > 100 | > 100 | > 100 | > 100 | > 100 | > 100 | > 100 |
| CC(=O)O[C@@H]1O[Si](C(C)(C)C)(C(C)(C)C)[C@H](C)[C@H]1C | > 100 | > 100 | > 100 | > 100 | > 100 | > 100 | > 100 | > 100 | > 100 |
| CN1C(=O)C23CCCCC2CC1(c1ccccc1)S3 (centres undefined) | > 100 | > 100 | > 100 | > 100 | > 100 | > 100 | > 100 | > 100 | > 100 |
| NC(N)=NC(N)=Nc1ccccc1 (tested in a mixture with another compound) | > 100 | > 100 | > 100 | > 100 | > 100 | > 100 | 81.4 | > 100 | > 100 |
| COc1ccc(/C=C2/CCS(=O)(=O)c3ccc(C)cc3C2=O)cc1OC | 27.7 | 27.4 | > 100 | 49.5 | > 100 | 36 | 45.1 | 37.5 | 42 |
| CCN(CC)COC(=S)S | > 100 | > 100 | > 100 | > 100 | > 100 | > 100 | > 100 | > 100 | > 100 |
| N#Cc1c(N)c(C#N)c2c(c1-c1ccc(Cl)cc1)COc1ccccc1-2 | 15.1 | 38.1 | > 100 | 66.4 | > 100 | – | 58.2 | 36.1 | 32.7 |
| C[C@]12CC/C(=N\OCCN3CCCCC3)C=C1CCC1C2CC[C@@]2(C)C1CC[C@]2(C)O (some centres undefined) | 17.3 | 39.6 | 37.7 | 11.7 | 94.4 | 14.3 | 97.2 | 34 | 26.6 |
| COc1ccc2c(-c3ccc(O)cc3)c(Oc3ccc(Cl)cc3)c(=O)oc2c1 | > 35.1 | > 37.7 | 17.9 | 23.2 | 21.4 | 23 | > 100 | > 22.7 | 20.1 |
| NC(=O)C(Nc1ccc(Cl)cc1)c1cc2cc(Br)ccc2nc1Cl (centres undefined) | > 50 | > 50 | > 50 | > 50 | > 50 | > 50 | > 50 | 47.7 | – |
| CCN(CC)C(=S)SS(=O)(=O)c1ccccc1[N+](=O)[O-] | 33.2 | > 78.4 | > 48.5 | > 66.6 | > 100 | > 100 | > 100 | > 90.3 | > 56.2 |
| CC(NC(NC(C)C12CC3CC(CC(C3)C1)C2)=C(C(Cl)=C(Cl)Cl)[N+](=O)[O-])C12CC3CC(CC(C3)C1)C2 (centres undefined) | > 100 | > 100 | 48.7 | > 100 | > 100 | > 100 | > 100 | > 100 | 12.6 |
| N#CCCN(CCC#N)c1ccc(C(N=Nc2ccc(Cl)cc2)=Nc2ccc(F)cc2)cc1 | > 100 | > 100 | > 100 | > 100 | > 100 | > 100 | > 100 | > 100 | > 100 |
| O=C1C(Cl)C(c2cc3cc(Br)ccc3nc2Cl)N1c1c(Cl)cccc1Cl (centres undefined) | > 25 | > 25 | > 25 | > 25 | > 25 | > 25 | > 25 | > 25 | – |
| CN(C)c1ccc(C2ON=C(c3ccccc3)N2C23CC4CC(CC(C4)C2)C3)cc1 (centres undefined) | > 10 | > 10 | > 10 | > 10 | > 10 | > 10 | > 10 | > 10 | > 10 |
| Cc1ccc(-c2cc(-c3c(C)nn(C)c(=O)c3N)[nH]n2)cc1 | > 100 | > 100 | > 100 | > 100 | > 100 | > 100 | > 100 | > 100 | > 100 |
| CC1(C)CN=C(Nc2ccc(F)c(F)c2)S1 | > 100 | > 100 | > 100 | > 100 | > 100 | > 100 | > 100 | > 100 | > 100 |
| O=C(Nn1cnn2c(=O)c3ccccc3nc2c1=O)c1ccccc1 | > 100 | > 100 | > 100 | > 100 | > 100 | > 100 | > 100 | > 100 | > 100 |
| O=[As](O)(O)c1ccc2nc3cc([As](=O)(O)O)ccc3nc2c1 | > 100 | > 100 | > 100 | > 100 | > 100 | > 100 | > 100 | > 100 | > 100 |
| CN(C)Cc1cc(N=Nc2ccc(Cl)cc2)ccc1O | 25.8 | 29.3 | 53.1 | 42.9 | 26.3 | 30.9 | 28.3 | 28.4 | 31.1 |
